PMC2680961, “Homologous desensitization of signalling by the alpha (α) isoform of the human thromboxane A2 receptor: A specific role for nitric oxide signalling” (Biochimica et Biophysica Acta, 2007)

How the values were obtained:
TPα^S239A = target: T1, TPα^S239A (Homo sapiens, UniProt P21731, S239A); assay: [3H]SQ29,548 radioligand binding, Scatchard analysis, HEK.TPα^S239A
T1 construct: expressed in transfected cells
T1 sequence (P21731 1-343 S239A): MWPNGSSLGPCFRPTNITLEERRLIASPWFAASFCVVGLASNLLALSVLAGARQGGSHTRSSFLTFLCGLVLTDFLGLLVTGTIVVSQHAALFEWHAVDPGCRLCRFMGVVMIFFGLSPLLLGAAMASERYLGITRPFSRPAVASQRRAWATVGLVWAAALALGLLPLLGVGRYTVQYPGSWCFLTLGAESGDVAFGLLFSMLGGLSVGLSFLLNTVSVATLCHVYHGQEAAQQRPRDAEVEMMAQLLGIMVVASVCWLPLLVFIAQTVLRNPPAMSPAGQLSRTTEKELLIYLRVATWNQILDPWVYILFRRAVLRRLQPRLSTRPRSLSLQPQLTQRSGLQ
Description: Cells were harvested by centrifugation at 500×g at 4 °C for 5 min and washed three times with ice-cold Ca^2+/Mg^2+-free phosphate-buffered saline (PBS). TP radioligand binding assays were carried out at 30 °C for 30 min in 100 μl reactions in the presence of 0–40 nM [^3H] […] Protein determinations were carried out using the Bradford assay.
Radioligand binding and Scatchard analysis data were analysed using GraphPad Prisim V4.0 programme (GraphPad Software Inc., San Diego CA, USA). Statistical analyses were carried out using the unpaired Student's t test using the Statworks Analysis Package. p-values ≤ 0.01 indicated statistically significant differences.

TP^S145A,Δ328 = target: T2, TP^S145A,Δ328 (Homo sapiens, UniProt P21731, S145A); assay: Intracellular calcium mobilization, HEK.TP^S145A,Δ328 cells; type: cell-based
T2 construct: expressed in transfected cells
T2 sequence (P21731 1-328 S145A): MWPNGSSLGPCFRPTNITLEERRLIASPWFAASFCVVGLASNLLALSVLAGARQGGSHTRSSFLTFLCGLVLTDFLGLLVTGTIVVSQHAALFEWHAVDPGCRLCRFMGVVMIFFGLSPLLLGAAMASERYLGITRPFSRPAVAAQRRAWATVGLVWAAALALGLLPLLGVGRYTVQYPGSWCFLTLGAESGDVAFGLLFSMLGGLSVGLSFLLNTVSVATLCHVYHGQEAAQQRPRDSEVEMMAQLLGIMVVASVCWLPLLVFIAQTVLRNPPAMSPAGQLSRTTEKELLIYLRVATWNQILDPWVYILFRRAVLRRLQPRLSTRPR
Description: Measurement of intracellular calcium mobilization ([Ca^2+]i) in FURA2/AM preloaded HEK 293 cell lines (2 × 10^6 cells/dish), each transiently co-transfected with pADVA (10 μg), and pCMV:Gαq (25 μg), was carried out as previously described. To investigate the effect of GRK2/βARK1 on TP-mediated [Ca^2+]i mobilization, HEK.TPα or HEK.TPβ cells (2 × 10^6 cells/dish) were co-transfected with pADVA (10 μg), pCMV:Gαq (25 μg) along with pRK5:βARK1^495–689 (25 μg), encoding a dominant negative form of GRK2/βARK1[39]. […] For each measurement of [Ca^2+]i mobilization, aliquots of cells were diluted to 0.825 × 10^6 cells/ml in HBSSHB, 1 mM CaCl2 and FURA2 fluorescence was recorded (2 ml aliquots of cells) at 37^ °C with gentle stirring with a Perkin Elmer-Cetus LS50-B spectrofluorometer at excitation wavelengths of 340 nm and 380 nm and emission wavelength of 510 nm, respectively.
Cells were stimulated with the TP agonist U46619 (1 μM) and changes in [Ca^2+]i mobilization were monitored as a function of time. […]
The vehicle had no effect on U46619-mediated [Ca^2+]i mobilization. Calibration of the signal was performed in each sample by adding 0.2% Triton X-100 to obtain the maximal fluorescence ratio (Rmax) and then 1 mM EGTA to obtain the minimal fluorescence ratio (Rmin). […]

TPβ = target: T3, TPβ (Homo sapiens, UniProt P21731); assay: Intracellular calcium mobilization, HEK.TPβ cells; type: cell-based
T3 construct: expressed in transfected cells
Description: Measurement of intracellular calcium mobilization ([Ca^2+]i) in FURA2/AM preloaded HEK 293 cell lines (2 × 10^6 cells/dish), each transiently co-transfected with pADVA (10 μg), and pCMV:Gαq (25 μg), was carried out as previously described. To investigate the effect of GRK2/βARK1 on TP-mediated [Ca^2+]i mobilization, HEK.TPα or HEK.TPβ cells (2 × 10^6 cells/dish) were co-transfected with pADVA (10 μg), pCMV:Gαq (25 μg) along with pRK5:βARK1^495–689 (25 μg), encoding a dominant negative form of GRK2/βARK1[39]. Approximately 48 h post-transfection, cells were harvested by scraping, washed twice in ice-cold PBS and resuspended in HBSSHB (modified Ca^2+/Mg^2+-free Hank's buffered salt solution, containing […], pH 7.67, 0.1% bovine serum albumin (BSA)) buffer at 10^7 cells/ml and incubated in the dark with 5 μM FURA2/AM for 45 min at 37 °C. Cells were collected by centrifugation (900×g, 5 min), washed once in an equal volume of HBSSHB, and were finally resuspended in HBSSHB buffer at 10^7 cells/ml and kept at room temperature in the dark for 40 min. For each measurement of [Ca^2+]i mobilization, aliquots of cells were diluted to 0.825 × 10^6 cells/ml in HBSSHB, 1 mM CaCl2 and FURA2 fluorescence was recorded (2 ml aliquots of cells) at 37^ °C with gentle stirring with a Perkin Elmer-Cetus LS50-B spectrofluorometer at excitation wavelengths of 340 nm and 380 nm and emission wavelength of 510 nm, respectively.
Cells were stimulated with the TP agonist U46619 (1 μM) and changes in [Ca^2+]i mobilization were monitored as a function of time. To assess agonist-mediated homologous desensitization, cells (0.825 × 10^6 cells/ml; 2 ml per assay) were stimulated with 1 μM U46619 (Primary stimulation) or, as a control, with the vehicle for 4 min; thereafter, cells were collected by centrifugation (900×g, 5 min); were washed twice in 2 ml HBSSHB, 1 mM CaCl2; and finally resuspended in 2 ml HBSSHB,1 mM CaCl2 and were left to recover over various time intervals (ranging from 0 to 60 min); thereafter, cells re-stimulated with 1 μM U46619 (Secondary stimulation) and changes in [Ca^2+]i mobilization were monitored as a function of time. To assess the role of protein kinase (PK) A, PKC or PKG on U46619-mediated desensitization of TPα signalling, cells were pre-incubated with the PKA inhibitor H-89 (10 μM), the PKC inhibitor GF 109203X (50 nM) or the PKG inhibitor KT 5823 (50 nM), for 15 min and respective kinase inhibitors were maintained throughout the primary/secondary U46619-stimulations and during the washes.
The vehicle had no effect on U46619-mediated [Ca^2+]i mobilization. Calibration of the signal was performed in each sample by adding 0.2% Triton X-100 to obtain the maximal fluorescence ratio (Rmax) and then 1 mM EGTA to obtain the minimal fluorescence ratio (Rmin). The ratio of the fluorescence at 340 nm to that at 380 nm is a measure of [Ca^2+]i, which assumes a Kd of 225 nM Ca^2+ for FURA2/AM. The results presented in the figures are representative data from at least three or four independent experiments and are plotted as changes in Ca^2+i mobilized (Δ[Ca^2+]i (nM)) as a function of time (s) upon ligand stimulation. Changes in [Ca^2+]i mobilization were determined by measuring peak rises in [Ca^2+]i mobilized (Δ[Ca^2+]i) and were calculated as mean changes in Δ[Ca^2+]i ± S.E.M. (nM).

T3 sequence (P21731 1-407 isoform P21731-2): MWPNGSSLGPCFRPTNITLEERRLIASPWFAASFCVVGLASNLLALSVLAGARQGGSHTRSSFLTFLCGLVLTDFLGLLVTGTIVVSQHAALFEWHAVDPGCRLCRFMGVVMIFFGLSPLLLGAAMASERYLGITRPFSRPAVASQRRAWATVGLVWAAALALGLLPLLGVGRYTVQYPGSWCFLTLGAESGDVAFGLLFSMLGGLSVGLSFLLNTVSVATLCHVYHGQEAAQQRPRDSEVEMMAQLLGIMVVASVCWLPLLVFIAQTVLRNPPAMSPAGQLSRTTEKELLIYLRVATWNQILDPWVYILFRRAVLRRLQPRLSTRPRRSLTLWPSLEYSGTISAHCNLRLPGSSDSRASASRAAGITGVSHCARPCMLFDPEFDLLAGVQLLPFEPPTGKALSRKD

| Compound | Bmax (pmol/mg protein ± S.E.M.) (TPα^S239A) [pmol/mg protein] | Δ[Ca2+]i, U46619-induced (TP^S145A,Δ328; primary 1 μM U46619 4 min) [nM] | Δ[Ca2+]i, U46619-induced (TP^S145A,Δ328; secondary 1 μM U46619 at 15 min) [nM] | Δ[Ca2+]i, U46619-induced (TPβ; + GRK^DN, primary 1 μM U46619) [nM] | Δ[Ca2+]i, U46619-induced (TPβ; + GRK^DN, secondary 1 μM U46619 at 15 min) [nM] | Δ[Ca2+]i, U46619-induced (TPβ; − GRK^DN, primary 1 μM U46619) [nM] | Δ[Ca2+]i, U46619-induced (TPβ; − GRK^DN, secondary 1 μM U46619 at 15 min) [nM] |
| --- | --- | --- | --- | --- | --- | --- | --- |
| O=C(O)CCC/C=C\C[C@@H]1[C@H](CNNC(=O)Nc2ccccc2)[C@H]2CC[C@@H]1O2 [SQ29,548] | 4.35 ± 0.04 |  |  |  |  |  |  |
| CCCCC[C@H](O)/C=C/[C@@H]1[C@@H](C/C=C\CCCC(=O)O)[C@H]2CO[C@@H]1C2 [U46619] |  | 174 ± 7.7 | 170 ± 9.9 | 195 ± 11 | 210 ± 12 | 180 ± 6.7 | 0 |
